In ChEMBL document CHEMBL3885861, “Open TG-GATES”:

Species: Rattus norvegicus
Assay: Open TG-GATES - Regimen: Single
Format: toxicity, organism-based, Sprague-Dawley
Design: regimen Single, gender Male, age 6 weeks
Details: in vivo, ip, 0 mg/kg, route intraperitoneal injection, dose level Control; for APTT / Bas / Eos / Fbg / Hb / Ht / Lym / MCH / MCHC / MCV / Mono / Neu / PT / Plat / RBC / Ret / WBC: tissue Blood; for KIDNEY_L / KIDNEY_R / KIDNEY_TOTAL: tissue Kidney; for LIVER: tissue Liver; for A/G / ALP / ALT / AST / BUN / CRE / Ca / Cl / DBIL / GLC / IP / K / LDH / Na / PL / RALB / TBIL / TC / TG / TP / gamma-GTP: tissue Plasma

## CCCCS(=N)(=O)CCC(N)C(=O)O (configuration not stated) [BUTHIONINE SULFOXIMINE]
3 h
  TERMINAL_BW: 217.4 g
  APTT: 16.3 s
  Bas: 0%
  Eos: 0.6%
  Fbg: 214.6 mg/dL
  Hb: 13.1 g/dL
  Ht: 39.2%
  Lym: 66.4%
  MCH: 21.9 pg
  MCHC: 33.4%
  MCV: 65.6 fL
  Mono: 10%
  Neu: 23.4%
  PT: 11.9 s
  Plat: 108.9 x10_4/uL
  RBC: 598.2 x10_4/ul
  Ret: 8.3%
  WBC: 104.5 x10_2/uL
  KIDNEY_L: 1 g
  KIDNEY_R: 1 g
  KIDNEY_TOTAL: 2 g
  LIVER: 10.4 g
  A/G: 2.3
  ALP: 962.6 IU/L
  ALT: 44 IU/L
  AST: 81 IU/L
  BUN: 12.8 mg/dL
  CRE: 0.5 mg/dL
  Ca: 10.9 mg/dL
  Cl: 104.4 meq/L
  DBIL: 0.086 mg/dL
  GLC: 190 mg/dL
  IP: 10.5 mg/dL
  K: 4.6 meq/L
  LDH: 100.4 IU/L
  Na: 140.6 meq/L
  PL: 139.6 mg/dL
  RALB: 3.7 g/dL
  TBIL: 0.4 mg/dL
  TC: 76 mg/dL
  TG: 63.8 mg/dL
  TP: 5.4 g/dL
  gamma-GTP: 1.2 IU/L
6 h
  TERMINAL_BW: 211.9 g
  APTT: 16.7 s
  Bas: 0%
  Eos: 0.8%
  Fbg: 221 mg/dL
  Hb: 13.3 g/dL
  Ht: 39.9%
  Lym: 68.2%
  MCH: 21.9 pg
  MCHC: 33.3%
  MCV: 65.9 fL
  Mono: 5%
  Neu: 26%
  PT: 10.8 s
  Plat: 112.3 x10_4/uL
  RBC: 605.2 x10_4/ul
  Ret: 9.1%
  WBC: 106.4 x10_2/uL
  KIDNEY_L: 1 g
  KIDNEY_R: 1 g
  KIDNEY_TOTAL: 1.9 g
  LIVER: 9.5 g
  A/G: 2
  ALP: 754.6 IU/L
  ALT: 38.2 IU/L
  AST: 68 IU/L
  BUN: 11.4 mg/dL
  CRE: 0.7 mg/dL
  Ca: 10.9 mg/dL
  Cl: 105.6 meq/L
  DBIL: 0.014 mg/dL
  GLC: 197.6 mg/dL
  IP: 9.8 mg/dL
  K: 4.9 meq/L
  LDH: 58.2 IU/L
  Na: 140.2 meq/L
  PL: 139.4 mg/dL
  RALB: 3.5 g/dL
  TBIL: 0.4 mg/dL
  TC: 78.2 mg/dL
  TG: 62.8 mg/dL
  TP: 5.3 g/dL
  gamma-GTP: 1.6 IU/L
9 h
  TERMINAL_BW: 214.6 g
  APTT: 17.1 s
  Bas: 0%
  Eos: 1%
  Fbg: 231 mg/dL
  Hb: 13.4 g/dL
  Ht: 40.5%
  Lym: 74.8%
  MCH: 21.5 pg
  MCHC: 33%
  MCV: 65.1 fL
  Mono: 5.6%
  Neu: 19%
  PT: 11 s
  Plat: 114 x10_4/uL
  RBC: 622.2 x10_4/ul
  Ret: 9.5%
  WBC: 101.1 x10_2/uL
  KIDNEY_L: 1 g
  KIDNEY_R: 1 g
  KIDNEY_TOTAL: 1.9 g
  LIVER: 8.9 g
  A/G: 2.1
  ALP: 838 IU/L
  ALT: 34.4 IU/L
  AST: 65.8 IU/L
  BUN: 12.8 mg/dL
  CRE: 0.5 mg/dL
  Ca: 11 mg/dL
  Cl: 106 meq/L
  DBIL: 0.006 mg/dL
  GLC: 203.4 mg/dL
  IP: 10.3 mg/dL
  K: 4.9 meq/L
  LDH: 60.8 IU/L
  Na: 139.2 meq/L
  PL: 146.6 mg/dL
  RALB: 3.8 g/dL
  TBIL: 0.3 mg/dL
  TC: 85 mg/dL
  TG: 57 mg/dL
  TP: 5.6 g/dL
  gamma-GTP: 1.2 IU/L
24 h
  TERMINAL_BW: 226.3 g
  APTT: 17.2 s
  Bas: 0%
  Eos: 1%
  Fbg: 231.6 mg/dL
  Hb: 13.6 g/dL
  Ht: 41%
  Lym: 75.4%
  MCH: 21.3 pg
  MCHC: 33.1%
  MCV: 64.5 fL
  Mono: 8.4%
  Neu: 15.2%
  PT: 11.4 s
  Plat: 115.5 x10_4/uL
  RBC: 636.4 x10_4/ul
  Ret: 8.8%
  WBC: 88.5 x10_2/uL
  KIDNEY_L: 1 g
  KIDNEY_R: 1 g
  KIDNEY_TOTAL: 2 g
  LIVER: 11 g
  A/G: 1.8
  ALP: 826.4 IU/L
  ALT: 37.8 IU/L
  AST: 63.2 IU/L
  BUN: 17.8 mg/dL
  CRE: 0.5 mg/dL
  Ca: 11.2 mg/dL
  Cl: 103.6 meq/L
  DBIL: 0.008 mg/dL
  GLC: 210.6 mg/dL
  IP: 9 mg/dL
  K: 4.8 meq/L
  LDH: 89.2 IU/L
  Na: 139.6 meq/L
  PL: 163.4 mg/dL
  RALB: 3.7 g/dL
  TBIL: 0.3 mg/dL
  TC: 83.2 mg/dL
  TG: 109.2 mg/dL
  TP: 5.8 g/dL
  gamma-GTP: 1.6 IU/L
